Experiments:
HeLa = test: Inhibition of protein synthesis in human HeLa cells at 50 to 500 uM pre-incubated for 1 hr before L-[35S]-cysteine and L-[35S]-methionine addition and measured after 1 hr by Comassie staining based autoradiography; format: functional, cell-based
[1] = target: 14-3-3 protein zeta/delta (Homo sapiens) (UniProt P63104); test: Binding affinity to […] zeta/delta in human Hela cells lysates assessed as protein enrichment by measuring normalized heavy/light ratio at by nano-LC-ESIMS/MS analysis; format: cell-free
[2] = target: T1, 80S Ribosome (Homo sapiens) (UniProt P08865+P42677+P62753+P15880+P23396+P61247+P62701+P22090+P46782+P62081+P62241+P46781+P46783+P62280+P25398+P62277+P62263+P62841+P62244+P62249+P08708+P62269+P39019+P60866+P63220+P62266+P62847+P62851+P62854+P62979+P62857+P62273+P62861+P39023+P36578+P46777+Q02878+P18124+P62424+P62917+P32969+P27635+P62906+P62913+P30050+P26373+P40429+P50914+P61313+P18621+Q07020+Q02543+P84098+P46778+P35268+P62829+P62750+P83731+P61254+P61353+P46776+P46779+P47914+P62888+P62899+P62910+P49207+P42766+P18077+Q9Y3U8+P83881+P61927+P61513+P63173+P62891+P62945+P05388+P05386); test: Binding affinity to 40S ribosomal protein S10 in human Hela cells lysates assessed as protein enrichment by measuring normalized heavy/light ratio at by nano-LC-ESIMS/MS analysis; format: cell-free
[3] = target: T1, 80S Ribosome (Homo sapiens); test: Binding affinity to 40S ribosomal protein S18 in human Hela cells lysates assessed as protein enrichment by measuring normalized heavy/light ratio at by nano-LC-ESIMS/MS analysis; format: cell-free
[4] = target: T1, 80S Ribosome (Homo sapiens); test: Binding affinity to 40S ribosomal protein S30 in human Hela cells lysates assessed as protein enrichment by measuring normalized heavy/light ratio at by nano-LC-ESIMS/MS analysis; format: cell-free
[5] = target: T1, 80S Ribosome (Homo sapiens); test: Binding affinity to 40S ribosomal protein S4 in human Hela cells lysates assessed as protein enrichment by measuring normalized heavy/light ratio at by nano-LC-ESIMS/MS analysis; format: cell-free
[6] = target: T1, 80S Ribosome (Homo sapiens); test: Binding affinity to 60S acidic ribosomal protein P1 in human Hela cells lysates assessed as protein enrichment by measuring normalized heavy/light ratio at by nano-LC-ESIMS/MS analysis; format: cell-free
[7] = target: Large ribosomal subunit protein P2 (Homo sapiens) (UniProt P05387); test: Binding affinity to 60S acidic ribosomal protein P2 in human Hela cells lysates assessed as protein enrichment by measuring normalized heavy/light ratio at by nano-LC-ESIMS/MS analysis; format: cell-free
[8] = target: T1, 80S Ribosome (Homo sapiens); test: Binding affinity to 60S ribosomal protein L10 in human Hela cells lysates assessed as protein enrichment by measuring normalized heavy/light ratio at by nano-LC-ESIMS/MS analysis; format: cell-free
[9] = target: T1, 80S Ribosome (Homo sapiens); test: Binding affinity to 60S ribosomal protein L15 in human Hela cells lysates assessed as protein enrichment by measuring normalized heavy/light ratio at by nano-LC-ESIMS/MS analysis; format: cell-free
[10] = target: T1, 80S Ribosome (Homo sapiens); test: Binding affinity to 60S ribosomal protein L23a in human Hela cells lysates assessed as protein enrichment by measuring normalized heavy/light ratio at by nano-LC-ESIMS/MS analysis; format: cell-free
[11] = target: T1, 80S Ribosome (Homo sapiens); test: Binding affinity to 60S ribosomal protein L4 in human Hela cells lysates assessed as protein enrichment by measuring normalized heavy/light ratio at by nano-LC-ESIMS/MS analysis; format: cell-free
[12] = target: Alkyldihydroxyacetonephosphate synthase, peroxisomal (Homo sapiens) (UniProt O00116); test: Binding affinity to alkyldihydroxyacetone phosphate synthase in human Hela cells lysates assessed as protein enrichment by measuring normalized heavy/light ratio at by nano-LC-ESIMS/MS analysis; format: cell-free
[13] = target: Alpha-enolase (Homo sapiens) (UniProt P06733); test: Binding affinity to alpha-enolase in human Hela cells lysates assessed as protein enrichment by measuring normalized heavy/light ratio at by nano-LC-ESIMS/MS analysis; format: cell-free
[14] = target: D-3-phosphoglycerate dehydrogenase (Homo sapiens) (UniProt O43175); test: Binding affinity to D3-phosphoglycerate dehydrogenase in human Hela cells lysates assessed as protein enrichment by measuring normalized heavy/light ratio at by nano-LC-ESIMS/MS analysis; format: cell-free
[15] = target: Elongation factor 1-beta (Homo sapiens) (UniProt P24534); test: Binding affinity to elongation factor 1-beta in human Hela cells lysates assessed as protein enrichment by measuring normalized heavy/light ratio at by nano-LC-ESIMS/MS analysis; format: cell-free
[16] = target: Elongation factor 2 (Homo sapiens) (UniProt P13639); test: Binding affinity to eukaryotic translation initiation factor in human Hela cells lysates assessed as protein enrichment by measuring normalized heavy/light ratio at by nano-LC-ESIMS/MS analysis; format: cell-free
[17] = target: L-lactate dehydrogenase A chain (Homo sapiens) (UniProt P00338); test: Binding affinity to L-lactate dehydrogenase A chain in human Hela cells lysates assessed as protein enrichment by measuring normalized heavy/light ratio at by nano-LC-ESIMS/MS analysis; format: cell-free
[18] = target: Solute carrier family 25 member 3 (Homo sapiens) (UniProt Q00325); test: Binding affinity to phosphate carrier protein in human Hela cells lysates assessed as protein enrichment by measuring normalized heavy/light ratio at by nano-LC-ESIMS/MS analysis; format: cell-free
[19] = target: Phosphoglycerate kinase 1 (Homo sapiens) (UniProt P00558); test: Binding affinity to phosphoglycerate kinase 1 in human Hela cells lysates assessed as protein enrichment by measuring normalized heavy/light ratio at by nano-LC-ESIMS/MS analysis; format: cell-free
[20] = target: Poly(rC)-binding protein 2 (Homo sapiens) (UniProt Q15366); test: Binding affinity to poly(rC)-binding protein 2 in human Hela cells lysates assessed as protein enrichment by measuring normalized heavy/light ratio at by nano-LC-ESIMS/MS analysis; format: cell-free
[21] = target: Putative annexin A2-like protein (Homo sapiens) (UniProt A6NMY6); test: Binding affinity to putative annexin A2-like protein in human Hela cells lysates assessed as protein enrichment by measuring normalized heavy/light ratio at by nano-LC-ESIMS/MS analysis; format: cell-free
[22] = target: Rho-related GTP-binding protein RhoQ (Homo sapiens) (UniProt P17081); test: Binding affinity to rho-related GTP-binding protein in human Hela cells lysates assessed as protein enrichment by measuring normalized heavy/light ratio at by nano-LC-ESIMS/MS analysis; format: cell-free
[23] = target: Stress-70 protein, mitochondrial (Homo sapiens) (UniProt P38646); test: Binding affinity to stress-70 protein in human Hela cells lysates assessed as protein enrichment by measuring normalized heavy/light ratio at by nano-LC-ESIMS/MS analysis; format: cell-free
[24] = target: Tubulin beta-4B chain (Homo sapiens) (UniProt P68371); test: Binding affinity to tubulin beta-4B chain in human Hela cells lysates assessed as protein enrichment by measuring normalized heavy/light ratio at by nano-LC-ESIMS/MS analysis
Sequence of Tubulin beta-4B chain (Homo sapiens) (P68371 whole entry, looked up): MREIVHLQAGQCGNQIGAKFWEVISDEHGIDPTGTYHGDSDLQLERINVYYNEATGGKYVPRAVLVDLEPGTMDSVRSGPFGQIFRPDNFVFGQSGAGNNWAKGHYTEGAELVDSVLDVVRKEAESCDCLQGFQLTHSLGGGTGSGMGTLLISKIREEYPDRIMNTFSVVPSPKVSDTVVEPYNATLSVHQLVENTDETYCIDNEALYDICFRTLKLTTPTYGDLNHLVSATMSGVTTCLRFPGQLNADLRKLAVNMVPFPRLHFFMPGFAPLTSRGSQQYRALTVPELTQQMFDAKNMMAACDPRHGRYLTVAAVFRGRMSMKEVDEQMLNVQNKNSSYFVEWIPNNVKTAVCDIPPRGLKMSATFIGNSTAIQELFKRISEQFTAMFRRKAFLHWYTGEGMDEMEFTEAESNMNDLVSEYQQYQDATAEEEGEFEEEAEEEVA

Sequence of Stress-70 protein, mitochondrial (Homo sapiens) (P38646 whole entry): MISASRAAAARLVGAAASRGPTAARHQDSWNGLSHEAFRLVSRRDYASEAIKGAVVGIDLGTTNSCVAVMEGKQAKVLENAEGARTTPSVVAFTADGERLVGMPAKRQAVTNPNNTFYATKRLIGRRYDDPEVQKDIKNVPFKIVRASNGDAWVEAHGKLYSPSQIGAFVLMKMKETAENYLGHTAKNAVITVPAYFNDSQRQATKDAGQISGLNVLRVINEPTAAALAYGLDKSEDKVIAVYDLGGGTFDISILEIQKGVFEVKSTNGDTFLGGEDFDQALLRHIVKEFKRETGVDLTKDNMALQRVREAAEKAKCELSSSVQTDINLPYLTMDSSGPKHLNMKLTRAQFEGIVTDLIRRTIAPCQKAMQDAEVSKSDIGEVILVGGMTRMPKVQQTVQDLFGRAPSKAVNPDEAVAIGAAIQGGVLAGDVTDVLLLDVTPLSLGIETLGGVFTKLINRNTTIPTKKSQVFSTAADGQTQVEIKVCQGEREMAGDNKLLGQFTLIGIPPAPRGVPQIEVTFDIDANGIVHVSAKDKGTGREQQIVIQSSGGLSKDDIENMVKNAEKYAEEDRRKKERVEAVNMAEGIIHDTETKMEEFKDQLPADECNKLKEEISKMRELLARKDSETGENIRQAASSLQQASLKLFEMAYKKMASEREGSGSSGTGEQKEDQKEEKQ
Sequence of Alkyldihydroxyacetonephosphate synthase, peroxisomal (Homo sapiens) (O00116 whole entry): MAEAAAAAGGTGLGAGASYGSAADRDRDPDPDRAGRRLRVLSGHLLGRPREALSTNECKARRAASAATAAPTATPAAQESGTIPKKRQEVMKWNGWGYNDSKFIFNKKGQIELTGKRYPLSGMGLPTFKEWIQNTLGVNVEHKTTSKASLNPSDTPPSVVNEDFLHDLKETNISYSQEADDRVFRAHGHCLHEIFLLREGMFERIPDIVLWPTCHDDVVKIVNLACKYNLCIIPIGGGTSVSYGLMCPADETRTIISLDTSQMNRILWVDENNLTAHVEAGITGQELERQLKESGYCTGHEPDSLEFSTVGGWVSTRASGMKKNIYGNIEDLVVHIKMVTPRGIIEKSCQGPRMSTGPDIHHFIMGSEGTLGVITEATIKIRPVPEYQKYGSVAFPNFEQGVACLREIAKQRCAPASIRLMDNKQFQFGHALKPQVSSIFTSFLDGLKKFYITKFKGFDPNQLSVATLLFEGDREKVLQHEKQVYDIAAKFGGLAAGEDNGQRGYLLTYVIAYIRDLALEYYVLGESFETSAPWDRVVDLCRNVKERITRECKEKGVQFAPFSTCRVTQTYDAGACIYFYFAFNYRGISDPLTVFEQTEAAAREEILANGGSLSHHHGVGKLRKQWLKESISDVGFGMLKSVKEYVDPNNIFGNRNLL
Sequence of D-3-phosphoglycerate dehydrogenase (Homo sapiens) (O43175 whole entry): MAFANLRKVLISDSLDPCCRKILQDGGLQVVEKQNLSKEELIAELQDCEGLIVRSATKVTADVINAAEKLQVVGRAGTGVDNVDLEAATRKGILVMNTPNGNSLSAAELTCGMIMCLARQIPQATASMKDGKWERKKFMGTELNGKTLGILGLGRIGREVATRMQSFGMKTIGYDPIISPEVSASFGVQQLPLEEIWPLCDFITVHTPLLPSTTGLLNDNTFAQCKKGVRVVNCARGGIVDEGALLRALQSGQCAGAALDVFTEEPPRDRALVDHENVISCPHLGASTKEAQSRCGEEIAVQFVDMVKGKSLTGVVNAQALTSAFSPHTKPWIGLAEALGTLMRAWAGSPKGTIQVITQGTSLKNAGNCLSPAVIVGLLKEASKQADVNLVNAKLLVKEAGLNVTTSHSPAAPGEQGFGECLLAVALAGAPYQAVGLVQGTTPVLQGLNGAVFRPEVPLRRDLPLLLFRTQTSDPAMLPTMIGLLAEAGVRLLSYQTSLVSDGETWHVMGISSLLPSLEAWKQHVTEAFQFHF
Sequence of Solute carrier family 25 member 3 (Homo sapiens) (Q00325 whole entry): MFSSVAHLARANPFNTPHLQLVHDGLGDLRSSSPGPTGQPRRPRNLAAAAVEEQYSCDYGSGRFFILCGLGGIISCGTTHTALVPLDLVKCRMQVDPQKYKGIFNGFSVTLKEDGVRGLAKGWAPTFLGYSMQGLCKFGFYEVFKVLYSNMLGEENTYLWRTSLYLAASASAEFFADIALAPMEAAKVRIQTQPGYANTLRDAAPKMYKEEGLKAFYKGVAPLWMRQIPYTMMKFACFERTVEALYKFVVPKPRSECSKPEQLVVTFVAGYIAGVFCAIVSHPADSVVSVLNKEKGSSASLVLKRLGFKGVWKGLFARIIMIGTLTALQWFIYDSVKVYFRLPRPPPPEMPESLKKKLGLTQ
Sequence of Putative annexin A2-like protein (Homo sapiens) (A6NMY6 whole entry): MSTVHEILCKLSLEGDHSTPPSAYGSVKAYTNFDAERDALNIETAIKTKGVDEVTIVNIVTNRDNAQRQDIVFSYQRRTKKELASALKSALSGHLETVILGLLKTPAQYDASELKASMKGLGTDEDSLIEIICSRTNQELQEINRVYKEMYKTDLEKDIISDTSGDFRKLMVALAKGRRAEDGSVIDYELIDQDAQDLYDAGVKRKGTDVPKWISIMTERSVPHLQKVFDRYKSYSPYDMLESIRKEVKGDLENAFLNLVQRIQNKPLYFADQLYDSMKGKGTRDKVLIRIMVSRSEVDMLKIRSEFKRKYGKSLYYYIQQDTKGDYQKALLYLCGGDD
Sequence of Poly(rC)-binding protein 2 (Homo sapiens) (Q15366 whole entry): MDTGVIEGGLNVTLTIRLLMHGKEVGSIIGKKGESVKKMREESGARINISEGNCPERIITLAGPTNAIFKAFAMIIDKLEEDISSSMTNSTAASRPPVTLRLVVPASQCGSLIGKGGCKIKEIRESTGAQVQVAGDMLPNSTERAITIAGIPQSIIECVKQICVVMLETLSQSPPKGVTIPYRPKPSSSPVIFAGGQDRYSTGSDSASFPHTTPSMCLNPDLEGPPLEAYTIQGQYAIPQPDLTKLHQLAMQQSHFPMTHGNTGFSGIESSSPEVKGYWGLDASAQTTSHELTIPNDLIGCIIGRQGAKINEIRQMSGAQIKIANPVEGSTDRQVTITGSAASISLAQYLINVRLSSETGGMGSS
Sequence of Rho-related GTP-binding protein RhoQ (Homo sapiens) (P17081 whole entry): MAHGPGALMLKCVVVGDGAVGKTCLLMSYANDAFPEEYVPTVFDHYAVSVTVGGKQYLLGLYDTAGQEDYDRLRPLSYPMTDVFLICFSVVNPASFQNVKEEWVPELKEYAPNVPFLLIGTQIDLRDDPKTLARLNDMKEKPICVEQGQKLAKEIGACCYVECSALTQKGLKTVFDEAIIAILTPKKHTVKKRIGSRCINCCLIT
Sequence of Large ribosomal subunit protein P2 (Homo sapiens) (P05387 whole entry): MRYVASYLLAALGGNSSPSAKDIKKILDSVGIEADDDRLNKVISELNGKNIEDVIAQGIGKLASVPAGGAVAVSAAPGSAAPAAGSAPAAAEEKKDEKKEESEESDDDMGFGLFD
Sequence of Elongation factor 1-beta (Homo sapiens) (P24534 whole entry): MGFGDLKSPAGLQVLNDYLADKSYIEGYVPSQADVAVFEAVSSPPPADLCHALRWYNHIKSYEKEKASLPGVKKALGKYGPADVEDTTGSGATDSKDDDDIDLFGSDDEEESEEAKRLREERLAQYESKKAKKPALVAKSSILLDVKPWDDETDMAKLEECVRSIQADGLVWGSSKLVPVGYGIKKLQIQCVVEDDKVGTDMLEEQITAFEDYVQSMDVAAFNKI
Sequence of Alpha-enolase (Homo sapiens) (P06733 whole entry): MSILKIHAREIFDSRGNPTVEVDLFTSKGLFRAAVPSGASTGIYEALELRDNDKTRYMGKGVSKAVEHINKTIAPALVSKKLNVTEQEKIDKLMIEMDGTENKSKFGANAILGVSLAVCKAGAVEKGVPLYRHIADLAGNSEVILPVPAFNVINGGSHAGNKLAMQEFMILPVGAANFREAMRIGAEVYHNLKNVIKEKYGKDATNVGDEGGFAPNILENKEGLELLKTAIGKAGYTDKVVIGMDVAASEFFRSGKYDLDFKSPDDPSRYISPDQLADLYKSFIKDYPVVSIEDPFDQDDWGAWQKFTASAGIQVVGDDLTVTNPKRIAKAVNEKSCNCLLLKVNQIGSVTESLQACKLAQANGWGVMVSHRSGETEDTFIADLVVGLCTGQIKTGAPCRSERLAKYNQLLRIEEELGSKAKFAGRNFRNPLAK
Sequence of 14-3-3 protein zeta/delta (Homo sapiens) (P63104 whole entry): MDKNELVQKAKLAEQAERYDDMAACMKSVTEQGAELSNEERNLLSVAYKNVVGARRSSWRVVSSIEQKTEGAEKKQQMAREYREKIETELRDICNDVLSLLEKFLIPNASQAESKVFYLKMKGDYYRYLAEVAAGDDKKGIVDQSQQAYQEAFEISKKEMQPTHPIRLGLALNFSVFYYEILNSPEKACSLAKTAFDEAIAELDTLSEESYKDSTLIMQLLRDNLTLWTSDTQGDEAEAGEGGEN

In the case of `C/C=C(\C)C(=O)O[C@H]1[C@H](O)[C@]2(COC(C)=O)[C@@H](O)C[C@]3(C)C(=CC[C@@H]4[C@@]5(C)CC[C@H](O[C@@H]6O[C@H](C(=O)O)[C@@H](O)[C@H](O)[C@H]6O)[C@@](C)(CO)[C@@H]5CC[C@]43C)[C@@H]2CC1(C)C`, the inhibition (HeLa) is reported as “Dose-dependent effect”, the Ratio [1] is reported as 0.62 and the Ratio [2] is reported as 0.39. The Ratio [3] was 0.448, the Ratio [4] was 0.075 and the Ratio [5] was 0.16. For the same compound, the Ratio [6] was 0.27, the Ratio [7] was 0.329 and the Ratio [8] was 0.105. It also gave a Ratio [9] of 0.818, a Ratio [10] of 0.313 and a Ratio [11] of 0.396. For the same compound, the Ratio [12] was 0.955, the Ratio [13] was 0.811 and the Ratio [14] was 0.509. For the same compound, the Ratio [15] was 0.525, the Ratio [16] was 0.795 and the Ratio [17] was 0.48. The Ratio [18] was 0.57, the Ratio [19] was 0.665 and the Ratio [20] was 0.633. The Ratio [21] was 0.988, the Ratio [22] was 0.706 and the Ratio [23] was 0.751. It also gave a Ratio [24] of 0.423.
